# Test results taken from patent US6066333A, “Pharmaceutical control of inflammation” (William Harvey Research Limited, priority 1994, dated 2000).
# Entries after “also recorded” stand apart in the source; their conditions may differ.
# How the values were obtained:
# [1] = tested on: heme-oxygenase (brain homogenates); test: heme-oxygenase activity in rat brain homogenates; format: biochemical; conditions: for effect on brain HO activity: 0.1-10 mM (sodium nitroprusside 0.001-10 mM)
# Method: (§1) The brains and spleens of male Wistar rats (160±20 g, Tuck Co. UK) were homogenized using a glass homogenizer, in protease inhibitory buffer; phenylmethylsulfonyl fluoride 1 mM, pepstatin A 1.5 mM and leupeptin 0.2 mM, in 10 mM phosphate buffered saline pH 7.3. Protein determinations were carried by the Bradford method, bovine serum albumin was used as protein standard.
# (§2) Heme-oxygenase activity was assayed as previously described (Sierra, E. E. et al., (1992) Analytical Biochem. 200, 27-30).
# (§3) Briefly, the 15 μl reaction mixture consisted of 11.2 μM [^14 C] heme (specific activity 54 Ci/mol), 1 mM NADPH, 2 mM glucose-6-phosphate, 0.1 units of glucose-6-phosphate dehydrogenase, 3 mg/ml liver cytosolic protein, 100-50 μg of sample protein and the relevant concentration of test drugs; L-arginine, D-arginine, NG-nitro-L-arginine methyl ester (L-NAME) or sodium nitroprusside. The reaction mixture containing the test drugs was allowed to equilibrate at 37° C. for 15 mins before the reaction was started by the addition of the heme. The reaction was terminated after 30 mins by the addition of excess cold heme and bilirubin and placed on ice. The reaction mixture was spotted on to the silica gel thin-layer chromatography sheet by 2, 2 μl applications. All samples were run in duplicate. The chromatogram was developed using a 20:1 dilution of chloroform:acetic acid. Spots corresponding to heme and bilirubin were excised and placed in 10 ml of scintillation fluid to be counted. The data was calculated as pmols bilirubin formed/mg protein/hour.
# (§4) Statistical analysis of the raw data was carried using Student's unpaired t test. Results expressed as mean ± s.e.mean with P<0.05 considered as significant.
# [2] = tested on: heme-oxygenase (spleen homogenates); test: heme-oxygenase activity in rat spleen homogenates; format: biochemical; conditions: 0.1-10 mM (sodium nitroprusside 0.001-10 mM)
# Method: as §1, §2, §3, §4
# carrageenin pleurisy [3] = test: rat carrageenin pleurisy model of acute inflammation (Example 1); format: in vivo; conditions: for Exudate Volume / Total Cells 10^6: mean ± s.e. mean; for effect on inflammation (exudate volumes and cell numbers) at 6 hours: compared to controls; for increase of exudate volume (cell exudate) compared to vehicle control: SnPP 2 x 40 μmoles/kg s.c.
# Method: Male Wistar rates 200±20 grams (Tuck & Sons Ltd., Essex, UK) were used for inflammation. Animals were administered either with 15 mg/kg Ferriprotoporphrin IX chloride (FePP) by intravenous injection--18 hours before inflammation or with 2 doses of 40 μmoles/kg Tin protoporphyrin dichloride (SnPP) by sub-cutaneous injection--18 hours and at the time of inflammation induction (porphyrins were obtained from Porphyrin Products Inc., Logan, Utah). Drugs were prepared in 0.1N NaOH and mixed 1:1 with saline, these were then adjusted to pH 7.4, drug vehicle. The total volume injected was 0.2 ml. Control animals received vehicle only.
# Carrageenin pleurisy was induced in rats and cell pellet prepared as previously described by Tomlinson et al.
# Results are expressed as the mean ± s.e. mean. Statistical analysis was determined by Mann-Whitney U-test, with a P value of <0.05 considered significant.
# The effect of heme-oxygenase inhibitor Tin protoporphyrin dichloride (SnPP) and inducer ferriprotoporphyrin IX chloride (FePP) on acute inflammation was examined. Treatment animals received either 2 doses of 40 μmoles/kg SnPP s.c.--18 and 0 hours before induction of inflammation, or 1 doses of 15 mg/kg FePP i.v--18 before inflammation. Treatment animals were compared to control animals which had received vehicle only by the appropriate route.***P<0.001.
# carrageenin pleurisy [4] = test: rat carrageenin pleurisy, dose response of HO modulators (Example 2); format: in vivo; conditions: for effect on the inflammatory lesion compared to vehicle control at 6 hours: 6 hours after carrageenin, PMNs phase (data not shown); for effect on inflammation at 24 hours (dose dependence): 3, 10 or 30 μmoles/kg
# Method: Animals received 2 doses of either 3, 10 or 30 μmoles/kg SnPP (a HO inhibitor) or vehicle control--18 hours and at the time of inflammation induction. Animals received 1 dose of either 3, 10 or 30 μmoles/kg FePP (a HO inducer) or vehicle control--18 hours before induction of inflammation, n=9.
# Male Wistar rats 200+20 grams were anaesthetized with halothane and 150 ul of a 1% carrageenin solution in 0.9% NaCl injected into the pleural cavity. Exudates were collected 2, 6, 12, 24 and 48 hours after injection of the irritant by pleural lavage with 1 ml protease inhibitory buffer containing: trisodium citrate 3.15%, phenylmethylsulfonyl fluoride 1 mM (Sigma Chemical Co., Poole, UK), pepstatin A 1.5 mM (Sigma) and leupeptin 0.2 mM (Sigma) in 10 mM phosphate buffered (PBS) pH 7.3. Any exudates with blood contamination were rejected. Cells were counted using a Coulter counter, model DN (Coulter Electronics Ltd., Luton, UK). Each sample was centrifuged at 800 g for 10 minutes and the resultant cell pellet prepared as outlined below.
# Results are expressed as the mean ± s.e.mean for (n) experiments. Statistical analysis was determined Student's unpaired t test, with a P value of <0.05 considered significant.
# To investigate whether increased HO activity was not only associated with tissue protection but also involved in resolving acute inflammation we used an HO inhibitor, tin protoporphyrin (SnPP), administered sub-cutaneously 18 hours before and at the time of carrageenin injection, and an HO inducer, ferriprotoporphyrin IX chloride (FePP), given […] 18 hours before induction of the inflammation (Maines MD et al., FASEB J. 1988; 2:2557-2568).
# heme-oxygenase = test: HO activity of 24 hour inflammatory cells after porphyrin treatment; format: in vivo, rat; conditions: FIGS. 15 and 16
# Method: Cells are lysed by sonication for 10 seconds in protease inhibitory buffer. Heme-oxygenase is assayed as previously described. […] The reaction is started by the addition of the heme, incubated at 37° C. for 30 minutes and stopped by the addition of excess cold heme and bilirubin followed by placing on ice. 2 μl of reaction mixture is spotted twice onto a silica gel thin-layer chromatography sheet. The chromatogram is developed using a 20:1 dilution of chloroform:acetic acid. Spots corresponding to hem and bilirubin are were cut out and placed in 10 ml of scintillation fluid to be counted. […] The activity is expressed as pmoles bilirubin/mg protein/hour, n=9. Results are expressed as the mean ± s.e.mean.
# [5] = 6 hours after carrageenin, SnPP 2 x 40 μmoles/kg s.c. (-18 and 0 h) or FePP 15 mg/kg i.v. (-18 h)
# [6] = 6 hours after carrageenin, SnPP 2 x 40 μmoles/kg s.c. or FePP 15 mg/kg i.v.
# [7] = 24 hours after carrageenin, SnPP 2 x 40 μmoles/kg s.c. or FePP 15 mg/kg i.v.
# [8] = 24 hours, FePP 15 mg/kg i.v., P<0.001
# [9] = 24 hours, FePP 3 μmole/kg, 1 dose s.c. 18 hours before
smiles,measurement,setting,value
N=C(N)NCCC[C@@H](N)C(=O)O [D-arginine],effect on brain HO activity,[1],no significant effect
same,effect on spleen HO activity,[2],not modified; also recorded: no effect
"C=CC1=C(C)c2cc3[n-]c(cc4[n-]c(cc5nc(cc1n2)C(C)=C5C=C)c(C)c4CCC(=O)O)c(CCC(=O)O)c3C.[Cl-].[Fe+3] [FePP, Ferriprotoporphrin IX chloride]",Exudate Volume,carrageenin pleurisy [3]; [5],0.99 ± 0.11 mL
same,Total Cells 10^6,carrageenin pleurisy [3]; [6],50 ± 8 10^6
same,effect on inflammation (exudate volumes and cell numbers) at 6 hours,carrageenin pleurisy [3],not significantly modified
same,effect on inflammation (exudate volumes and cell numbers) at 6 hours,carrageenin pleurisy [3]; listed as hemin,no significant effect
same,Exudate Volume,carrageenin pleurisy [3]; [7],0.37 ± 0.07 mL
same,Total Cells 10^6,carrageenin pleurisy [3]; [7],45 ± 6 10^6
same,decrease of cell number (total cells) compared to vehicle control,carrageenin pleurisy [3]; [8],50%
same,decrease of exudate volume (cell exudate) compared to vehicle control,carrageenin pleurisy [3]; [8],73%
same,decrease of exudate volume (cell exudate) compared to vehicle control,"carrageenin pleurisy [3]; 24 hours, FePP 15 mg/kg i.v., P<0.001, listed as hemin",83%
same,effect on the inflammatory lesion compared to vehicle control at 6 hours,carrageenin pleurisy [4],Neither SnPP or FePP treatments had an effect
same,degree of suppression compared with conventional anti-inflammatories or steroids in this model,carrageenin pleurisy [4]; 24 hours,greater than that seen with optimal doses of conventional anti-inflammatories or steroids
same,effect on inflammation at 24 hours (dose dependence),carrageenin pleurisy [4]; 24 hours,dose dependant suppression of inflammatory cell number and exudate volume
same,reduction of exudate volume compared to vehicle control,carrageenin pleurisy [4]; [9],55%
same,reduction of inflammatory cell number compared to vehicle control,carrageenin pleurisy [4]; [9],90%
same,HO activity of inflammatory pellets after treatment,heme-oxygenase,increase
"COC(=O)[C@@H](N)CCCNC(=N)N[N+](=O)[O-] [L-NAME, NG-nitro-L-arginine methyl ester]",increase in brain HO activity,"[1]; 5 mM L-NAME, vs control without compound",80%
same,effect on brain HO activity,[1],dose dependent increase; also recorded: increased activity
same,effect on spleen HO activity,[2],not modified; also recorded: no effect
N=C(N)NCCC[C@H](N)C(=O)O [L-arginine],decrease in brain HO activity,"[1]; 10 mM, vs control without compound, 30 min",75%
same,effect on brain HO activity,[1],dose dependent decrease; also recorded: decreased heme-oxygenase activity
same,effect on spleen HO activity,[2],not modified; also recorded: no effect
"C=CC1=C(C)C2=Cc3c(C=C)c(C)c4[n]3[Sn]([Cl])([Cl])[n]3c(c(C)c(CCC(=O)O)c3=CC3=NC(=C4)C(C)=C3CCC(=O)O)=CC1=N2 [SnPP, Tin protoporphyrin dichloride]",Exudate Volume,carrageenin pleurisy [3]; [5],1.59 ± 0.12 mL
same,Total Cells 10^6,carrageenin pleurisy [3]; [6],67 ± 6 10^6
same,effect on inflammation (exudate volumes and cell numbers) at 6 hours,carrageenin pleurisy [3],not significantly modified
same,effect on inflammation (exudate volumes and cell numbers) at 6 hours,carrageenin pleurisy [3]; listed as tin Protoporphyrin-IX,no significant effect
same,Exudate Volume,carrageenin pleurisy [3]; [7],1.80 ± 0.21 mL
same,Total Cells 10^6,carrageenin pleurisy [3]; [7],58 ± 6 10^6
same,increase of exudate volume (cell exudate) compared to vehicle control,"carrageenin pleurisy [3]; 24 hours, P<0.001",128%
same,increase of exudate volume (cell exudate) compared to vehicle control,"carrageenin pleurisy [3]; 24 hours, P<0.001, listed as tin Protoporphyrin-IX",135%
same,effect on the inflammatory lesion compared to vehicle control at 6 hours,carrageenin pleurisy [4],Neither SnPP or FePP treatments had an effect
same,increase of exudate volume compared to vehicle control,"carrageenin pleurisy [4]; 24 hours, 3 μmoles/kg SnPP, 2 doses s.c.",70%
same,effect on inflammation at 24 hours (dose dependence),carrageenin pleurisy [4]; 24 hours,dose dependant increase in inflammatory exudate
same,effect on exudate volume at highest dose,"carrageenin pleurisy [4]; 24 hours, SnPP 30 μmoles/kg",increased exudate volume further
same,effect on inflammatory cell number at highest dose,"carrageenin pleurisy [4]; 24 hours, SnPP 30 μmoles/kg, likely a toxic effect",decrease in inflammatory cell number
same,HO activity of inflammatory pellets after treatment,heme-oxygenase,reduction of HO activity
